Source: PubChem BioAssay AID624404 (Broad Institute, 2012)
Inconclusive results are not listed.

What follows are compounds tested on D54 LucT luciferase reporter counterscreen, luminescence, 24 h (assay: reporter signal increase, D54 LucT cells – cell-based, luminescence, cherry pick, counter-screen for N-linked glycosylation inhibitor project, dose response (AID 624404)).
`COc1ccc2c(c1)[C@H]1[C@H](CO2)[C@H](c2ccccc2)[C@]2(C)C(=O)Nc3ccc(F)cc3C(=O)N12` gave an AC35 of 582 nM.
`Cc1nn(-c2ccccc2)c2c1CC(=O)Nc1ccccc1-2` gave an AC35 of 3160 nM.
`COc1ccc2c(c1)[C@H]1[C@H](CO2)[C@H](c2ccccc2)[C@]2(C)C(=O)Nc3ccc(Cl)cc3C(=O)N12` gave an AC35 of 148 nM.
Work on `COc1cc(F)ccc1-c1csc(C(NC(C)=O)c2cccc(F)c2)n1` (configuration not stated) yielded an AC35 of 93.1 nM.
In the case of `O=C(Nc1ccc(Cc2ccncc2)cc1)c1ccc([N+](=O)[O-])o1`, the AC35 is reported as 2680 nM.
`COc1cccc(N2CCN(C(=O)c3ccc(CS(=O)c4ccc(Cl)cc4)o3)CC2)c1` (configuration not stated) gave an AC35 of 773 nM.
`COc1ccc2nc(C)cc(Nc3ccc(N4CCN(C)CC4)cc3)c2c1` showed an AC35 of 4750 nM.
`O=C(N/N=C/c1ccccn1)c1sc2ccccc2c1Cl` gave an AC35 of 93.1 nM.
In the case of `O=C1OCC2=C1C(c1ccc3c(c1)OCO3)c1cc3c(cc1O2)OCO3` (configuration not stated), the AC35 is reported as 352 nM.
For `Cc1ccc2nc(SCC(=O)Nc3ccc4sc(C)nc4c3)c(C#N)cc2c1`, the AC35 was 4.83 nM.
For `CC1CN(C(=O)c2cc(-c3ccc(Cl)s3)nc3ccccc23)CC(C)O1` (configuration not stated), the AC35 was 3320 nM.
For `NS(=O)(=O)c1ccc(NC(=O)c2cccc3cc4ccccc4nc23)cc1`, the AC35 was 6580 nM.
For `COc1ccc([C@@H]2[C@@H]3C(=O)N(C(C)(C)C)C(=O)[C@@H]3[C@]3(Cc4ccccc4)C(=O)N(c4cccc(Cl)c4)C(=O)N23)cc1`, the AC35 was 2180 nM.
With `CCN(CC)c1ccc(/C=N\NC(=O)c2cccc3cc[nH]c23)cc1` the AC35 was 1940 nM.
For `CC[C@H](C)[C@@H](NC(=O)O[C@@H]1C(=O)c2cc(OC)ccc2O[C@H]1c1ccc(OC)c(Br)c1)C(=O)OC`, the AC35 was 1480 nM.
In the case of `CCOC(=O)c1sc(Nc2nc(C)cc(C)n2)nc1C`, the AC35 is reported as 1070 nM.
With `CC1CN(C(=O)c2ccc(COc3ccc(C(C)C)cc3)o2)CC(C)O1` (configuration not stated) the AC35 was under 1.2 nM.
For `COc1cccc(C(=O)Nc2ccc3c(c2)C(=O)c2ccccc2C3=O)c1`, the AC35 was 121 nM.
For `Cc1cc(C(=O)N/N=C/c2c3ccccc3cc3ccccc23)n[nH]1`, the AC35 was 643 nM.
Work on `N#Cc1c(-c2ccc(F)cc2)c(-c2ccc(F)cc2)nn(CCO)c1=O` yielded an AC35 of 997 nM.
Compound `COc1cccc(C(=O)Nc2ncc3c(n2)CC(c2ccc(OC)cc2OC)CC3=O)c1` (configuration not stated) has an AC35 of 7610 nM.
`CC1(C(=O)NCc2ccccc2)Cc2c(-c3cccc(C(N)=O)c3)ccnc2O1` (configuration not stated) gave an AC35 of 651 nM.
`Cc1ccc2c(c1)cc(CN(C(=O)N1CCOCC1)C1CCCC1)c1nnnn12` showed an AC35 of 2460 nM.
`CC(C)(C)c1ccc(OCC(=O)Nc2ccncc2)c(Br)c1` showed an AC35 of 35.6 nM.
`O=C(NC1CCCCC1)c1ccc([N+](=O)[O-])o1` gave an AC35 of 1370 nM.
`CC1(C(=O)NCC2CCOCC2)Cc2c(-c3cccc(C(F)(F)F)c3)ccnc2O1` (configuration not stated) showed an AC35 of 32.5 nM.
With `CN1/C(=C/C=C(/C#N)C(N)=O)C(C)(C)c2ccccc21` the AC35 was 7.24 nM.
`O=C(Nc1ncccc1O)c1ccc(C(=O)c2ccccc2)cc1` gave an AC35 of 773 nM.
`C[C@@]12C(=O)Nc3cc(F)c(F)cc3C(=O)N1[C@H]1c3ccccc3OC[C@@H]1[C@@H]2c1ccccc1` showed an AC35 of 746 nM.
`CC(=O)Nc1cc(-c2cccc(C(=O)N(C)C)c2)cn2c(-c3cccc(C(=O)N(C)C)c3)cnc12` gave an AC35 of 1740 nM.
Compound `CC(=O)Nc1cccc(NC(=O)c2ccccc2OCc2ccccc2)c1` has an AC35 of 3830 nM.
`CC1CN(c2nc(-c3ccccc3)nnc2-c2ccccc2)CC(C)O1` (configuration not stated) gave an AC35 of 1390 nM.
Compound `Cc1ccc(-c2nc(NCCCN(C)C)c3ccccc3n2)cc1` has an AC35 of 3890 nM.
`Cc1nn(-c2ccccc2)c(Cl)c1/C=N/Nc1nc2ccccc2[nH]1` was tested, and the AC35 was 23.5 nM.
Compound `O=C(c1cccs1)N1CCC(c2nc3c(nnn3Cc3cccc(Cl)c3)c(=O)[nH]2)CC1` has an AC35 of 174 nM.
`COc1ccccc1C(=O)Nc1ccc2c(c1)nc(CCNC(=O)c1ccco1)n2C` was tested, and the AC35 was 45.3 nM.
`Nc1nc(-c2ccccn2)nc(N)c1Cc1ccc(Cl)cc1Cl` showed an AC35 of 1480 nM.
With `CC(=O)c1sc(Nc2cccc3ccccc23)nc1C` the AC35 was 4070 nM.
`COc1cc(NC(=O)c2ccccc2OCc2ccccc2)cc(OC)c1OC` showed an AC35 of 1080 nM.
`COc1ccc(N/C=C/C(=O)c2cc(OC)c(OC)c(OC)c2)cc1` gave an AC35 of 263 nM.
Compound `CCOc1cc(N2CCOCC2)c(OCC)cc1NC(=O)c1[nH]c(C)c(C(C)=O)c1C` has an AC35 of 10.7 nM.
Compound `O=C(NCCN1C(=O)S/C(=C\c2ccccc2Cl)C1=O)C1=COCCO1` has an AC35 of 4980 nM.
Work on `COc1cc(C(=O)N/N=C(\C)c2ccc3c(c2)OCO3)cc(OC)c1OC` yielded an AC35 of 92.4 nM.
Work on `O=C(Nc1c(Cl)ccc2nsnc12)c1ccc([N+](=O)[O-])o1` yielded an AC35 of 778 nM.
For `CCc1ccc(C2c3[nH]c4ccccc4c3CCN2C(=O)c2ccc(=O)n(C)n2)cc1` (configuration not stated), the AC35 was 1240 nM.
`COc1ccc(NC(=O)C2(C)Cc3c(-c4cccc(C(N)=O)c4)ccnc3O2)cc1` (configuration not stated) was tested, and the AC35 was 3620 nM.
Compound `CCOC(=O)N1CCc2cc(OC)c(OC)c3c2c1cc1cc(OC)c(OC)cc13` has an AC35 of 1940 nM.
With `CCOC(=O)N/N=C/c1ccc(N(CC)CC)cc1O` the AC35 was 2580 nM.
`CCOc1ccc2cc(/C=C/C(=O)c3ccco3)c(Cl)nc2c1` gave an AC35 of 4140 nM.
Work on `COc1cc2c(cc1OC)C(c1ccccc1)N(C(=O)c1ccccc1)CC2` (configuration not stated) yielded an AC35 of 321 nM.
`C=C(C)Cn1c2ccc(NC(=O)CCc3cccc(Cl)c3)cc2c(=O)n1C` was tested, and the AC35 was 4260 nM.
`O=C(NC1CCCCCC1)c1c2c(nc3ccccc13)CCN(Cc1ccccc1)C2` gave an AC35 of 3450 nM.
`Oc1ccc(C2=NNC(=NCc3ccc4c(c3)OCO4)SC2)c(O)c1` was tested, and the AC35 was 3120 nM.
With `Cc1ccc(-c2nc3ncccc3o2)cc1NC(=O)c1ccc([N+](=O)[O-])o1` the AC35 was 505 nM.
`N#CC1=C(N)Oc2c(c(=O)sc3ccccc23)C1c1cccnc1` (configuration not stated) was tested, and the AC35 was 1260 nM.
With `O=C(/C=C/c1ccccc1)c1ccccc1` the AC35 was 1200 nM.
In the case of `Cc1cccc(NC(=O)c2cnn3ccccc23)c1C`, the AC35 is reported as 532 nM.
For `O=C(/C(=C\c1ccccc1)c1nc2ccccc2[nH]1)c1ccc(Cl)cc1`, the AC35 was 306 nM.
In the case of `O=S(=O)([N-]c1nc2ccccc2nc1-n1cc[n+](Cc2ccccc2)c1)c1ccc(Br)cc1`, the AC35 is reported as 57 nM.
In the case of `Cc1ccc(NC(=O)c2ccc(Cl)cc2[N+](=O)[O-])nc1`, the AC35 is reported as 2420 nM.
`COc1ccc(CCCC(=O)NCc2ccccc2)cc1C` was tested, and the AC35 was 2780 nM.
Compound `CCOC(=O)c1cnc2c(ccc3ccccc32)c1NCCCN(C)C` has an AC35 of 515 nM.
`O=C(Nc1ccccc1)N(CCN1CCOCC1)Cc1ccccc1F` gave an AC35 of 2370 nM.
Compound `COc1ccc([C@@H]2[C@@H]3C(=O)N(C(C)(C)C)C(=O)[C@@H]3[C@]3(Cc4ccccc4)C(=O)N(c4cccc(Br)c4)C(=O)N23)cc1` has an AC35 of 762 nM.
`Cc1ccc2nsnc2c1NC(=O)c1ccc([N+](=O)[O-])o1` showed an AC35 of 571 nM.
`O=C1NC(=O)N(Cc2ccco2)C(=O)/C1=C/C=C/c1ccco1` showed an AC35 of 12300 nM.
`COC(=O)c1c(NC(=O)c2cccnc2Cl)sc(C(=O)N(C)C)c1C` was tested, and the AC35 was 1380 nM.
`COc1ccc(CC(=O)Nc2ccc(-c3ccc4nnc(C)n4n3)cc2)cc1OC` showed an AC35 of 1800 nM.
With `COc1ccc(C(=O)Nc2sc(C)c(C)c2CN2CC(C)OC(C)C2)cc1` (configuration not stated) the AC35 was 352 nM.
For `COc1cc2c(cc1OC)C(c1cccs1)N(C(=S)NC(C)C)CC2` (configuration not stated), the AC35 was 85.1 nM.
`COc1ccc(C2=NOC(C(=O)NCc3cccs3)C2)cc1` (configuration not stated) was tested, and the AC35 was 1140 nM.
For `O=C1Cc2c([nH]c3ccc([N+](=O)[O-])cc23)-c2ccccc2N1`, the AC35 was 894 nM.
Compound `C[C@@]12C(=O)Nc3cc(Cl)ccc3C(=O)N1[C@H]1c3cc(Br)ccc3OC[C@@H]1[C@@H]2c1ccccc1` has an AC35 of 2550 nM.
Compound `COc1cccc(C(NC(C)=O)c2nc(-c3ccc(F)cc3OC)cs2)c1` (configuration not stated) has an AC35 of 63.3 nM.
`CCn1c2ccccc2c2cc(/C=N/NC(=O)c3ccc(O)cc3)ccc21` was tested, and the AC35 was 4490 nM.
Compound `CS(=O)(=O)c1cccc(C(=O)Nc2ccc(-c3nc4ccccc4[nH]3)cc2)c1` has an AC35 of 3750 nM.
In the case of `CCOc1ccc(C(=O)n2cc(C(=O)OC)c3ccccc32)cc1`, the AC35 is reported as 6030 nM.
